This is an account of results in patent US20120178625A1, “METHOD FOR REDUCING PISTILLATE FLOWER ABORTION IN PLANTS” (BASF SE, priority 2009, published 2012).

The assay relates to walnut (Juglans regia cv. Serr). The experiment in a line: Control of PFA (pistillate flower abortion) field trial in a walnut orchard, Graneros, Chile (2008/2009). Type of assay: in vivo. The settings on record: water 1500 l/ha. An excerpt: In the terms of the present invention, “reducing pistillate flower abortion in plants” refers to a reduction in the level of PFA. This reduction can be measured by determining a) the fruit set (%), b) the number of growing fruits (%) and/or c) the remaining fruits at harvest (%) (fruit yield). The higher the percentage of fruit set, growing fruits and/or remaining fruits at harvest, the lower the respective pistillate flower abortion. The trial was run in a walnut orchard (Juglans regia cv. Serr) located in Graneros, Chile in the year 2008. Trial design was completely randomized with 3 replicates per treatment. Each replicate had identified branches completing 100 female flowers. Remaining fruit were counted after fruit set and at harvest time. […] [table] […] As a consequence PFA was quite high, influencing adversely yields in orchard where no ethylene control was done.

[1] abbreviates: Treatment No. 2: 0.5 l/ha, 2 applications (10% and 30% of pistillates flowering).
The mark [2] stands for this setting: Treatment No. 5: 0.7 l/ha + 0.015% Break-Thru, 3 applications (10%, 30% and 50% of pistillates flowering).

With `COC(=O)N(OC)c1ccccc1COc1ccn(-c2ccc(Cl)cc2)n1` [Pyraclostrobin, pyraclostrobin], under setting [1], the “Fruit set (%) (Oct. 23, 2008)” value was 54.0%; the “Increase (%) compared to UTC, fruit set” value is on record as “+108%”; the “Increase (%) compared to UTC, remaining fruits at harvest” value is listed as “+106%”; the “Increase (%) compared to UTC, small growing fruits” value is “+104%”. Under setting [1], the “Remaining fruits at harvest (%) (Mar. 03, 2009)” value is reported as 46.0% and the “Small growing fruits (%) (Nov. 10, 2008)” value was 46.3%. Besides, under setting [2], the “Increase (%) compared to UTC, fruit set” value is listed as “+165%”; the “Increase (%) compared to UTC, remaining fruits at harvest” value is “+200%”; the “Increase (%) compared to UTC, small growing fruits” value is given as “+201%”.
